According to PMC9423655, “Huntington’s disease phenotypes are improved via mTORC1 modulation by small molecule therapy” (PLoS ONE, 2022):

Biological target: T1, Sestrin2/GATOR2 interaction (Homo sapiens, UniProt P58004)
T1 construct: endogenous in cells; host or cells: Flag-WDR24 293T (HEK293T) cells
T1 sequence (P58004 1-480): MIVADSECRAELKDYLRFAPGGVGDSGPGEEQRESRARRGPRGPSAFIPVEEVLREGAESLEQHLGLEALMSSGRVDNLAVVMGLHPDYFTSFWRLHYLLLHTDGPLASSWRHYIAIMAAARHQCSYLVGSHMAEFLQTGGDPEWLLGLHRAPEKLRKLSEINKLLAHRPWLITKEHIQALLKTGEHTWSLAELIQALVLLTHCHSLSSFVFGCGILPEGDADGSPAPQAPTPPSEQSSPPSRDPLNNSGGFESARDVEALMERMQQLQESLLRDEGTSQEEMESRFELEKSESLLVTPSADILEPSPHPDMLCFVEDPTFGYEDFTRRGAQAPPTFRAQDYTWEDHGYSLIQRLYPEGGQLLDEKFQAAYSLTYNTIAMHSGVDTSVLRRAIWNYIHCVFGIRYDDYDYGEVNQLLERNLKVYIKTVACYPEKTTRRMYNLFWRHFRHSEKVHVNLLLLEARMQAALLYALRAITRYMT
Experiment: Lysate-based (cell-free) Sestrin2/GATOR2 protein-protein interaction assay
Type: binding
Details: added to immunoprecipitated Sestrin2/GATOR2 complexes from amino acid-starved flag-WDR24 HEK293T cells, 10 minutes
Method: Flag-WDR24 293T cells were washed and placed in amino acid-free RPMI for 50 minutes. Cells were then rinsed once with ice-cold PBS and immediately lysed with Triton lysis buffer. The cell lysates were cleared by centrifugation at 13,200 rpm at 4°C in a microcentrifuge for 10 minutes. The anti-FLAG immunoprecipitations were performed as described above. Immunoprecipitated proteins (IPs) were resuspended in cytosolic buffer (40 mM HEPES pH 7.4, 140 mM KCl, 10 mM NaCl, 2.5 mM MgCl2, 0.1% TritonX-100) containing vehicle, NV-5297 or leucine at the indicated doses for 10 minutes. After compound incubation, IPs were collected by centrifugation, denatured, resolved by SDS-PAGE, and analyzed by immunoblotting.
Next, Sestrin2/GATOR2 protein-protein interactions in response to NV-5297 were measured using cell-free assays and in vitro. For this, HEK293T cells stably expressing flag-WDR24, a component of GATOR2 [44], were used. The cell-free assays utilized Sestrin2/GATOR2 complexes immunoprecipitated from amino acid-starved cells with an anti-flag antibody.

CC(C)(C[C@H](N)C(=O)O)C(F)(F)F [NV-5297, (S)-2-amino-5,5,5-trifluoro-4,4-dimethylpentanoic acid]
Sestrin2/GATOR2 interaction (GATOR2-associated Sestrin2): disrupted the Sestrin2/GATOR2 interaction in a dose-dependent manner
